Measurements from US11220548B2, “Treatment of C1013G/CXCR4-associated Waldenstrom's macroglobulinemia with an anti-CXCR4 antibody” (BRISTOL-MYERS SQUIBB COMPANY, priority 2013, dated 2022).

How the values were obtained:
[1] = tested on: WM cell lines (MWCL.1; BCWM.1); assay: [3H]-thymidine uptake proliferation assay in presence of primary WM BM-MSCs; assay type: cell-based, human; conditions: 48 h
Method: FIGS. 15A-15C: FIGS. 15A-15C show the effect of BMS-936564 on adhesion and proliferation of WM cells in vitro. WM cell lines were treated with BMS-936564 for 4 h and subsequently tested for adhesion to primary WM BM-MSCs. […] WM cell lines, MWCL.1 (FIG. 15B) and BCWN.1 (FIG. 15C) were cultured with control media and with BMS-936564 for 48 h in the presence or absence of primary WM BMMSCs. Cell proliferation was assessed using a [^3H]-thymidine uptake assay. Bars indicate standard deviations. P indicates P value. All data represent mean (±sd) of triplicate experiments. The CXCR4 antagonist, […] (Sigma-Aldrich, St. Louis, Mo.), was used as control.

[2] = tested on: BCWM.1 cells; assay: Western blot of apoptosis-related proteins in WM cells; assay type: cell-based, human; conditions: 14 h
Method: FIGS. 18A and 18B: FIGS. 18A and 18B show the effect of BMS-936564 on apoptosis-related proteins in WM cells. BCWM.1 cells were exposed to BMS-936564 for 14 h. Whole cell lysates were then harvested and subjected to western blot analysis using anti-caspase-9, anti-PARP and anti-tubulin antibodies (FIG. 18A), and anti-p-β catenin, anti-β-catenin, anti-p-GSK3β, and anti-tubulin antibodies (FIG. 18B).
(§1) Protein lysates were obtained from WM cells by homogenization under nondenaturing conditions in lysis buffer (Cell Signaling Technology, Beverly, Mass.) supplemented with 5 mM NaF, 2 mM Na3VO4, 1 mM PMSF ([…]), 5 μg/mL leupeptine, and 5 μg/mL aprotinin. Whole-cell lysates were subjected to sodium dodecyl sulfate-polyacrylamide gel electrophoresis (SDS-PAGE) and transferred to polyvinylidene difluoride (PVDF) membrane (Bio-Rad Laboratories, Hercules, Calif.). The antibodies used for immunoblotting included: anti-phospho(p)-ERK, anti-ERK, anti-p-Akt, anti-Akt, anti-p-Src, anti-Src, anti-caspase-9, anti-PARP, anti-p-β-catenin, anti-β-catenin, anti-p-GSK3, anti-GAPDH and anti-α-tubulin antibodies (Cell Signaling, Danvers, Mass.).

[3] = tested on: BCWM.1 cells; assay: Western blot of survival signaling in WM cells; assay type: cell-based, human; conditions: 6 h, cultured in the context of BM-MSCs, increasing concentrations
Method: BCWM.1 cells were exposed to BMS-936564 for 6 h in presence or absence of primary WM BM-MSCs. The BCWM.1 cells were then harvested and cell lysates were subjected to western blot analysis using anti-phospho(p)-ERK1/2, anti-ERK1/2, anti-p-Akt, anti-Akt, anti-p-SRC, and anti-SRC antibodies. BCWM.1 cells cultured in the absence of WM BM-MSCs were used as control. Bars indicate standard deviation.
as §1
To dissect the possible role of BMS-936564 in affecting WM signaling, WM cells were cultured in the absence or presence of primary WM BM-MSCs, with increasing concentrations of the anti-CXCR4 antibody.

[4] = tested on: C1013G/CXCR4 variant-harboring BCWM.1 cells; assay: In vivo dissemination of C1013G/CXCR4-mutated WM cells (immunohistochemistry for human CD20 and CXCR4); set-up: species or system SCID/Bg mice; conditions: 10 mg/kg intraperitoneally, 3-4 times per week for 3 weeks
Method: FIGS. 20A-20E: FIGS. 20A-20E show representative histochemical images of the effect of BMS-936564 on C1013G/CXCR4-mutated cells in WM cells in vivo. SCID/Bg mice were injected intravenously with either C1013G/CXCR4 variant-harboring BCWM.1 cells or empty/control vector-infected cells (control cells). Mice were treated with either BMS-936564 or control antibody (10 mg/kg, intraperitoneally; ×3/4/week; mice: 5/group). After 3 weeks mice were euthanized and organs harvested. Hematoxylin-eosin immunohistochemical staining for human CD20 and CXCR4 were performed on femur BM (FIG. 20A), liver (FIG. 20B), kidney (FIG. 20C), lung (FIG. 20D), and lymph nodes (FIG. 20E) (Nikon, Melville, N.Y.; 4×, 10× or 20× magnifications are shown).
Murine tissues (BM, liver, kidney, lung and lymph nodes) were analyzed and quantified for the expression of human CD20 and human CXCR4. These tissues were fixed in formalin 10%, ethanol 70% was used as storage solution; and embedded in paraffin. Paraffin sections were incubated with anti-human-CXCR4 (Abcam, Cambridge, Mass.), and anti-human-CD20 (Dako, Carpinteria, Calif.) monoclonal antibodies, using the Leica Bond III automated staining platform (Leica Biosystems, Buffalo Grove, Ill.). […] Quantification of CD20 and CXCR4 staining was performed using NIS Elements software (Nikon, Melville, N.Y.). […]

**Q.** For “BMS-936564: fully human anti-CXCR4 monoclonal antibody; VH SEQ ID NO: 25, VL SEQ ID NO: 29”, which “WM cell proliferation in presence of WM BM-MSCs” value [1] is on record?
**A.** Its value is “inhibition”.

**Q.** And the “caspase-9 and PARP cleavage” value [2]?
**A.** The value was “increase”.

**Q.** And the “p-GSK3-β, p-β-catenin and β-catenin” value [2]?
**A.** The value was “increased phospho(p)-GSK3-β, and p-β-catenin up-regulation, leading to β-catenin degradation”.

**Q.** What about the “p-Akt, p-ERK, and p-Src in WM cells” value [3] of the same substance?
**A.** Its value is “drug-dependent inhibition”.

**Q.** And the “involvement of lymph nodes” value [4]?
**A.** The value was “absent”.

**Q.** What about the “CXCR4+/CD20+ cell infiltration in femur, liver, kidney and lung” value ([4]; vs control antibody-treated mice) of the same substance?
**A.** The value was “significant reduction”.
